In publication PMC5218480 (PLoS ONE, 2017):

Tested on: MV-4-11 cells
Test: Gene expression microarray analysis (Affymetrix PrimeView) and GSEA
Assay type: cell-based, human
Set-up: RFU PODN (11730768_x_at) / Fold change /veh PODN (11730768_x_at) / RFU LINC00158 (11744669_a_at) / Fold change /veh LINC00158 (11744669_a_at) / RFU DUSP10 (11751237_a_at) / Fold change /veh DUSP10 (11751237_a_at) / RFU ID3 (11757404_x_at) / Fold change /veh ID3 (11757404_x_at) / RFU PLEKHG5 (11737974_s_at) / Fold change /veh PLEKHG5 (11737974_s_at) / RFU LRRC4B (11730491_at) / Fold change /veh LRRC4B (11730491_at) / RFU GIMAP4 (11747438_a_at) / Fold change /veh GIMAP4 (11747438_a_at) / RFU KRT8 (11758183_x_at) / Fold change /veh KRT8 (11758183_x_at) / RFU CNN1 (11734310_a_at) / Fold change /veh CNN1 (11734310_a_at) / RFU VPS37D (11726825_at) / Fold change /veh VPS37D (11726825_at) / RFU C10orf10 (11716522_x_at) / Fold change /veh C10orf10 (11716522_x_at) / RFU KIR2DL2 /// KIR2DL4 /// KIR2DL5A /// KIR2DL5B /// KIR2DS1 /// KIR2DS2 /// KIR2DS3 /// KIR2DS4 /// KIR3DL3 /// KIR3DL3 /// KIR3DS1 (11738374_at) / Fold change /veh KIR2DL2 /// KIR2DL4 /// KIR2DL5A /// KIR2DL5B /// KIR2DS1 /// KIR2DS2 /// KIR2DS3 /// KIR2DS4 /// KIR3DL3 /// KIR3DL3 /// KIR3DS1 (11738374_at) / RFU C1QL1 (11718748_at) / Fold change /veh C1QL1 (11718748_at) / RFU TMPRSS4 (11747572_a_at) / Fold change /veh TMPRSS4 (11747572_a_at) / RFU HAMP (11756126_x_at) / Fold change /veh HAMP (11756126_x_at) / RFU RNFT2 (11725882_a_at) / Fold change /veh RNFT2 (11725882_a_at) / RFU NR4A2 (11747474_a_at) / Fold change /veh NR4A2 (11747474_a_at) / RFU ABCC12 (11746883_a_at) / Fold change /veh ABCC12 (11746883_a_at) / RFU TMEM136 (11760407_x_at) / Fold change /veh TMEM136 (11760407_x_at) / RFU CLDN22 /// WWC2 (11732394_at) / Fold change /veh CLDN22 /// WWC2 (11732394_at) / RFU HLA-DPB1 (11760878_x_at) / Fold change /veh HLA-DPB1 (11760878_x_at) / RFU SPINT1 (11716480_a_at) / Fold change /veh SPINT1 (11716480_a_at) / RFU GAP43 (11754022_s_at) / Fold change /veh GAP43 (11754022_s_at) / RFU A4GNT (11735810_at) / Fold change /veh A4GNT (11735810_at) / RFU PRB3 (11715151_x_at) / Fold change /veh PRB3 (11715151_x_at) / RFU TUBB4B (11761932_at) / Fold change /veh TUBB4B (11761932_at) / RFU CAPN14 (11732068_a_at) / Fold change /veh CAPN14 (11732068_a_at) / RFU TMCC2 (11721928_a_at) / Fold change /veh TMCC2 (11721928_a_at) / RFU IRGQ (11745062_a_at) / Fold change /veh IRGQ (11745062_a_at) / RFU FAM174B (11720279_a_at) / Fold change /veh FAM174B (11720279_a_at) / RFU TMPRSS4 (11748680_a_at) / Fold change /veh TMPRSS4 (11748680_a_at) / RFU FAM212B (11763350_a_at) / Fold change /veh FAM212B (11763350_a_at) / RFU PLEKHG5 (11743358_a_at) / Fold change /veh PLEKHG5 (11743358_a_at) / RFU ZSCAN30 (11745921_a_at) / Fold change /veh ZSCAN30 (11745921_a_at) / RFU CMKLR1 (11741424_a_at) / Fold change /veh CMKLR1 (11741424_a_at) / RFU LOC101060620 /// MAPK8IP1 (11723275_at) / Fold change /veh LOC101060620 /// MAPK8IP1 (11723275_at) / RFU SPTSSB (11747773_x_at) / Fold change /veh SPTSSB (11747773_x_at) / RFU PRSS12 (11739890_at) / Fold change /veh PRSS12 (11739890_at) / RFU BIN1 (11741810_x_at) / Fold change /veh BIN1 (11741810_x_at) / RFU WNT11 (11732464_a_at) / Fold change /veh WNT11 (11732464_a_at) / RFU C10orf10 (11716521_a_at) / Fold change /veh C10orf10 (11716521_a_at) / RFU C5orf56 (11738089_at) / Fold change /veh C5orf56 (11738089_at) / RFU CYB561 (11721691_x_at) / Fold change /veh CYB561 (11721691_x_at) / RFU ANKRD19P (11752326_a_at) / Fold change /veh ANKRD19P (11752326_a_at) / RFU OR2T12 /// OR2T33 /// OR2T8 (11738714_s_at) / Fold change /veh OR2T12 /// OR2T33 /// OR2T8 (11738714_s_at) / RFU VCAN (11748164_a_at) / Fold change /veh VCAN (11748164_a_at) / RFU JSRP1 (11732532_at) / Fold change /veh JSRP1 (11732532_at) / RFU KRTAP10-11 (11738290_x_at) / Fold change /veh KRTAP10-11 (11738290_x_at) / RFU MYO3A (11730013_a_at) / Fold change /veh MYO3A (11730013_a_at) / RFU EBF3 (11725865_a_at) / Fold change /veh EBF3 (11725865_a_at) / RFU CAMK2N1 (11719241_x_at) / Fold change /veh CAMK2N1 (11719241_x_at) / RFU C5orf56 (11738088_a_at) / Fold change /veh C5orf56 (11738088_a_at) / RFU OLFML3 (11715873_a_at) / Fold change /veh OLFML3 (11715873_a_at) / RFU LOC100653217 /// NTM (11731650_a_at) / Fold change /veh LOC100653217 /// NTM (11731650_a_at) / RFU MAPK11 (11762145_a_at) / Fold change /veh MAPK11 (11762145_a_at) / RFU FIZ1 (11724087_x_at) / Fold change /veh FIZ1 (11724087_x_at) / RFU OASL (11726364_x_at) / Fold change /veh OASL (11726364_x_at) / RFU SOX15 (11748057_x_at) / Fold change /veh SOX15 (11748057_x_at) / RFU CD79A (11719716_a_at) / Fold change /veh CD79A (11719716_a_at) / RFU HIST1H1D (11736915_at) / Fold change /veh HIST1H1D (11736915_at) / RFU CASKIN2 (11723855_a_at) / Fold change /veh CASKIN2 (11723855_a_at) / RFU LOC730098 (11760151_x_at) / Fold change /veh LOC730098 (11760151_x_at) / RFU OR4N2 (11742367_at) / Fold change /veh OR4N2 (11742367_at) / RFU PRRT2 (11749266_a_at) / Fold change /veh PRRT2 (11749266_a_at) / RFU SNX32 (11753110_a_at) / Fold change /veh SNX32 (11753110_a_at) / RFU CDHR5 (11726645_a_at) / Fold change /veh CDHR5 (11726645_a_at) / RFU RCAN1 (11760418_a_at) / Fold change /veh RCAN1 (11760418_a_at) / RFU FAM167A (11723789_a_at) / Fold change /veh FAM167A (11723789_a_at) / RFU FAM26E (11764081_at) / Fold change /veh FAM26E (11764081_at) / RFU ISYNA1 (11749810_s_at) / Fold change /veh ISYNA1 (11749810_s_at) / RFU ACY1 (11761880_at) / Fold change /veh ACY1 (11761880_at) / RFU 11764098_at / Fold change /veh 11764098_at / RFU SAMD14 (11745864_x_at) / Fold change /veh SAMD14 (11745864_x_at) / RFU NPB (11741838_a_at) / Fold change /veh NPB (11741838_a_at) / RFU TMPRSS6 (11731388_a_at) / Fold change /veh TMPRSS6 (11731388_a_at) / RFU KRTAP10-2 (11738614_at) / Fold change /veh KRTAP10-2 (11738614_at) / RFU ARHGAP8 /// PRR5-ARHGAP8 (11727945_x_at) / Fold change /veh ARHGAP8 /// PRR5-ARHGAP8 (11727945_x_at) / RFU KRTAP5-7 /// NADSYN1 (11734609_at) / Fold change /veh KRTAP5-7 /// NADSYN1 (11734609_at) / RFU RASL12 (11751679_a_at) / Fold change /veh RASL12 (11751679_a_at) / RFU CDKN2B (11736163_a_at) / Fold change /veh CDKN2B (11736163_a_at) / RFU PRF1 (11729649_at) / Fold change /veh PRF1 (11729649_at) / RFU, ZNF638 /// ZNF638-IT1 / Fold change vs veh, ZNF638 /// ZNF638-IT1 / RFU, PANK3 / Fold change vs veh, PANK3 / RFU, SH3YL1 / Fold change vs veh, SH3YL1 / RFU, ZEB2 / Fold change vs veh, ZEB2 / RFU, NRIP1 / Fold change vs veh, NRIP1 / RFU, PTTG1IP / Fold change vs veh, PTTG1IP / RFU, CAPN2 / Fold change vs veh, CAPN2 / RFU, MED14 / Fold change vs veh, MED14 / RFU, SNORA58 / Fold change vs veh, SNORA58 / RFU, C1orf63 / Fold change vs veh, C1orf63 / RFU, LRRFIP1 / Fold change vs veh, LRRFIP1 / RFU, NDUFAF7 / Fold change vs veh, NDUFAF7 / RFU, SLC12A2 / Fold change vs veh, SLC12A2 / RFU, IBTK / Fold change vs veh, IBTK / RFU, ESF1 / Fold change vs veh, ESF1 / Fold change vs veh, TMEM50B / RFU, TAOK1 / Fold change vs veh, TAOK1 / RFU, ACBD3 / Fold change vs veh, ACBD3 / RFU, TMA16 / Fold change vs veh, TMA16 / RFU, RWDD3 / Fold change vs veh, RWDD3 / RFU, BCAT1 / Fold change vs veh, BCAT1 / RFU, EDEM3 / Fold change vs veh, EDEM3 / RFU, TMEM33 / Fold change vs veh, TMEM33 / RFU, WDR75 / Fold change vs veh, WDR75 / RFU, AHCTF1 / Fold change vs veh, AHCTF1 / RFU, TFRC / Fold change vs veh, TFRC / RFU, ZDHHC17 / Fold change vs veh, ZDHHC17 / RFU, NOM1 / Fold change vs veh, NOM1 / RFU, ARL8B / Fold change vs veh, ARL8B / RFU, ZBTB11 / Fold change vs veh, ZBTB11 / RFU, TAMM41 / Fold change vs veh, TAMM41 / RFU, KIAA1704 /// LOC100996395 / Fold change vs veh, KIAA1704 /// LOC100996395 / RFU, ING1 / Fold change vs veh, ING1 / RFU, TRMT61B / Fold change vs veh, TRMT61B / RFU, FUBP3 / Fold change vs veh, FUBP3 / RFU, TP53 / Fold change vs veh, TP53 / RFU, TNKS2 / Fold change vs veh, TNKS2 / RFU, ZFP14 / Fold change vs veh, ZFP14 / RFU, ACTR2 / Fold change vs veh, ACTR2 / RFU, PPP3R1 / Fold change vs veh, PPP3R1 / RFU, PIK3R1 / Fold change vs veh, PIK3R1 / RFU, HNRNPA1 / Fold change vs veh, HNRNPA1 / RFU, RNF170 / Fold change vs veh, RNF170 / RFU, ZNF28 / Fold change vs veh, ZNF28 / RFU, RNGTT / Fold change vs veh, RNGTT / RFU, OGT / Fold change vs veh, OGT / RFU, BRD1 / Fold change vs veh, BRD1 / RFU, MARS / Fold change vs veh, MARS / RFU, ZNF655 / Fold change vs veh, ZNF655 / RFU, FAHD1 / Fold change vs veh, FAHD1 / RFU, BDP1 / Fold change vs veh, BDP1 / RFU, LRRCC1 / Fold change vs veh, LRRCC1 / RFU, ARID1A / Fold change vs veh, ARID1A / RFU, ZNF146 / Fold change vs veh, ZNF146 / RFU, ZNF330 / Fold change vs veh, ZNF330 / RFU, GPN3 / Fold change vs veh, GPN3 / RFU, C9orf123 / Fold change vs veh, C9orf123 / RFU, N4BP2L2 / Fold change vs veh, N4BP2L2 / RFU, ARFIP1 / Fold change vs veh, ARFIP1 / RFU, FAM179B / Fold change vs veh, FAM179B / RFU, BCL10 / Fold change vs veh, BCL10 / RFU, UHRF1BP1L / Fold change vs veh, UHRF1BP1L / RFU, BET1 / Fold change vs veh, BET1 / RFU, CNOT2 / Fold change vs veh, CNOT2 / RFU, ZNF268 / Fold change vs veh, ZNF268 / Fold change vs veh, ZNF507 / RFU, DGCR2 / Fold change vs veh, DGCR2 / RFU, WDSUB1 / Fold change vs veh, WDSUB1 / Fold change vs veh, HSP90B1 /// MIR3652 / RFU, ADSS / Fold change vs veh, ADSS / RFU, GK / Fold change vs veh, GK / RFU, ZNF148 / Fold change vs veh, ZNF148 / RFU, TAF9 / Fold change vs veh, TAF9 / RFU, SLC1A5 / Fold change vs veh, SLC1A5 / RFU, SLMO2 / Fold change vs veh, SLMO2 / RFU, ABCC4 / Fold change vs veh, ABCC4 / RFU, LOC101060439 /// RAP1B / Fold change vs veh, LOC101060439 /// RAP1B / RFU, RFX7 / Fold change vs veh, RFX7 / RFU, GTPBP10 / Fold change vs veh, GTPBP10 / RFU, CNEP1R1 / Fold change vs veh, CNEP1R1 / RFU, BIVM-ERCC5 /// ERCC5 / Fold change vs veh, BIVM-ERCC5 /// ERCC5 / RFU, ILF3 / Fold change vs veh, ILF3 / RFU 11762660_at / Fold change /veh 11762660_at / RFU VCAN (11757783_s_at) / Fold change /veh VCAN (11757783_s_at) / RFU DDX43 (11728927_at) / Fold change /veh DDX43 (11728927_at) / RFU KRT8 (11758188_x_at) / Fold change /veh KRT8 (11758188_x_at) / RFU NKD1 (11759106_at) / Fold change /veh NKD1 (11759106_at) / RFU SRD5A1 (11742802_a_at) / Fold change /veh SRD5A1 (11742802_a_at) / RFU TPSAB1 /// TPSB2 (11721975_s_at) / Fold change /veh TPSAB1 /// TPSB2 (11721975_s_at) / RFU GSTM3 (11746129_a_at) / Fold change /veh GSTM3 (11746129_a_at) / RFU IL23R (11737362_x_at) / Fold change /veh IL23R (11737362_x_at) / RFU TMEM51 (11727254_a_at) / Fold change /veh TMEM51 (11727254_a_at) / RFU PIWIL2 (11732686_x_at) / Fold change /veh PIWIL2 (11732686_x_at) / RFU ORM1 (11744905_x_at) / Fold change /veh ORM1 (11744905_x_at) / RFU CCDC152 (11743942_at) / Fold change /veh CCDC152 (11743942_at) / RFU ECM1 (11717891_a_at) / Fold change /veh ECM1 (11717891_a_at) / RFU IL23R (11748794_a_at) / Fold change /veh IL23R (11748794_a_at) / RFU TNFAIP8L3 (11732012_x_at) / Fold change /veh TNFAIP8L3 (11732012_x_at) / RFU MBOAT4 (11741988_at) / Fold change /veh MBOAT4 (11741988_at) / RFU 11764193_at / Fold change /veh 11764193_at / RFU TMEM53 (11763286_at) / Fold change /veh TMEM53 (11763286_at) / RFU MAGEB2 (11727129_at) / Fold change /veh MAGEB2 (11727129_at) / RFU TMEM200A (11744735_a_at) / Fold change /veh TMEM200A (11744735_a_at) / RFU CCDC152 (11751479_a_at) / Fold change /veh CCDC152 (11751479_a_at) / RFU FAM211A (11726209_a_at) / Fold change /veh FAM211A (11726209_a_at) / RFU RGS16 (11746705_a_at) / Fold change /veh RGS16 (11746705_a_at) / RFU VCAN (11755009_s_at) / Fold change /veh VCAN (11755009_s_at) / RFU RHOB (11743442_s_at) / Fold change /veh RHOB (11743442_s_at) / RFU RGS16 (11720943_a_at) / Fold change /veh RGS16 (11720943_a_at) / RFU RGS16 (11720944_at) / Fold change /veh RGS16 (11720944_at) / RFU, VPS4B / Fold change vs veh, VPS4B / RFU, CREB1 / Fold change vs veh, CREB1 / RFU, DNAJC13 / Fold change vs veh, DNAJC13 / RFU, GNAQ / Fold change vs veh, GNAQ / RFU, CDK5R1 / Fold change vs veh, CDK5R1 / RFU, ZRANB3 / Fold change vs veh, ZRANB3 / RFU, CUL4A / Fold change vs veh, CUL4A / RFU, CCNY / Fold change vs veh, CCNY / RFU, UFL1 / Fold change vs veh, UFL1 / RFU, COG3 / Fold change vs veh, COG3 / RFU, DIAPH2 / Fold change vs veh, DIAPH2 / RFU, SKA2 / Fold change vs veh, SKA2 / RFU, AFF3 / Fold change vs veh, AFF3 / RFU, LMF1 / Fold change vs veh, LMF1 / RFU, IPO11 / Fold change vs veh, IPO11 / RFU, DFFB / Fold change vs veh, DFFB / RFU, FOXP1 / Fold change vs veh, FOXP1 / RFU, CARD8 / Fold change vs veh, CARD8 / RFU, STRN3 / Fold change vs veh, STRN3 / RFU, ADK / Fold change vs veh, ADK / RFU, RASSF2 / Fold change vs veh, RASSF2 / RFU, WIPF1 / Fold change vs veh, WIPF1 / RFU, LARP1B / Fold change vs veh, LARP1B / RFU, RASA1 / Fold change vs veh, RASA1 / RFU, RB1 / Fold change vs veh, RB1 / RFU, PPFIA1 / Fold change vs veh, PPFIA1 / RFU, MAT2A / Fold change vs veh, MAT2A / RFU, CCT5 / Fold change vs veh, CCT5 / RFU, WDR92 / Fold change vs veh, WDR92 / RFU, CUX1 / Fold change vs veh, CUX1 / RFU, TTC7A / Fold change vs veh, TTC7A / RFU, TMEM135 / Fold change vs veh, TMEM135 / RFU, DEPTOR / Fold change vs veh, DEPTOR / RFU, CPM / Fold change vs veh, CPM / RFU, DNAJB6 / Fold change vs veh, DNAJB6 / RFU, CACNA2D3 / Fold change vs veh, CACNA2D3 / RFU, DTX4 / Fold change vs veh, DTX4 / RFU, TFCP2 / Fold change vs veh, TFCP2 / RFU, GMCL1 /// GMCL1P1 / Fold change vs veh, GMCL1 /// GMCL1P1 / RFU, AEBP2 / Fold change vs veh, AEBP2 / RFU, SNHG1 /// SNORD22 /// SNORD25 /// SNORD26 /// SNORD27 /// SNORD28 /// SNORD29 /// SNORD31 / Fold change vs veh, SNHG1 /// SNORD22 /// SNORD25 /// SNORD26 /// SNORD27 /// SNORD28 /// SNORD29 /// SNORD31 / Fold change (Aza/veh), C12orf56 (ProbeSet 11735607_a_at) / Fold change (ACY-1035/veh), C12orf56 (ProbeSet 11735607_a_at) / Fold change (Aza/veh), FGFR1OP (ProbeSet 11751329_s_at) / Fold change (ACY-1035/veh), FGFR1OP (ProbeSet 11751329_s_at) / Fold change (Aza/veh), VPS36 (ProbeSet 11739960_a_at) / Fold change (ACY-1035/veh), VPS36 (ProbeSet 11739960_a_at) / RFU SYPL1 (11715823_x_at) / Fold change /veh SYPL1 (11715823_x_at) / RFU IGFBP7 (11715501_s_at) / Fold change /veh IGFBP7 (11715501_s_at) / RFU REEP3 (11722064_at) / Fold change /veh REEP3 (11722064_at) / RFU IGLL1 (11728026_x_at) / Fold change /veh IGLL1 (11728026_x_at): dose or concentration left out as unconfirmed
Conditions: MV-4-11 cells, 48 hours

Structure (SMILES): Nc1ncn([C@@H]2O[C@H](CO)[C@@H](O)[C@H]2O)c(=O)n1 [azacitidine]
- Fold change /veh FAM26E (11764081_at): 0.84
